{"source": "ChEMBL document CHEMBL4270556", "about": "“Current progress on antioxidants incorporating the pyrazole core” (Eur J Med Chem, 2018)", "key": {"[1]": {"experiment": "Antioxidant activity assessed as DPPH radical scavenging activity at 80 ug/ml relative to control", "format": "functional"}, "[2]": {"experiment": "Antioxidant activity assessed as DPPH radical scavenging activity at 60 ug/ml relative to control", "format": "functional"}, "[3]": {"experiment": "Antioxidant activity assessed as DPPH radical scavenging activity at 20 ug/ml relative to control", "format": "functional"}, "[4]": {"experiment": "Antioxidant activity assessed as DPPH radical scavenging activity at 40 ug/ml relative to control", "format": "functional"}, "[5]": {"experiment": "Antioxidant activity assessed as DPPH radical scavenging activity after 20 mins by UV absorbance method relative to control", "format": "functional"}, "[6]": {"experiment": "Antioxidant activity assessed as inhibition of lipid peroxidation", "format": "functional"}, "[7]": {"experiment": "Antioxidant activity assessed as hydroxyl radical scavenging activity", "format": "functional"}, "[8]": {"experiment": "Antioxidant activity assessed as inhibition of DPPH radical at 100 ug/ml relative to control", "format": "functional"}, "[9]": {"experiment": "Antioxidant activity assessed as radical scavenging activity at 30 to 50 ug/ml relative to control", "format": "functional"}, "[10]": {"experiment": "Antioxidant activity assessed as DPPH radical scavenging activity at 4 mM relative to control", "format": "functional"}, "[11]": {"experiment": "Antioxidant activity assessed as inhibition of lipid peroxidation relative to control", "format": "functional", "conditions": "dose or concentration not given here"}, "[12]": {"experiment": "Antioxidant activity assessed as nitric oxide radical scavenging activity at 100 mM after 150 mins in presence of sodium nitroprusside relative to control", "format": "functional"}, "[13]": {"experiment": "Antioxidant activity assessed as ferric ion reducing activity after 20 mins in presence of potassium ferricyanide by FRAP assay relative to control", "format": "functional", "design": "scale not given: the % may be the effect or the level left"}, "[14]": {"experiment": "Antioxidant activity assessed as radical scavenging activity", "format": "functional"}, "[15]": {"experiment": "Antioxidant activity assessed as inhibition of H2O2-induced lipid peroxidation", "format": "functional"}, "[16]": {"experiment": "Antioxidant activity assessed as DPPH radical scavenging activity at 30 to 50 ug/ml relative to control", "format": "functional"}, "[17]": {"experiment": "Antioxidant activity assessed as DPPH radical scavenging activity at 100 mM after 30 mins relative to control", "format": "functional"}, "[18]": {"test_system": "THP-1", "experiment": "Antioxidant activity in human THP1 cells assessed as inhibition of macrophage-mediated LDL oxidation after 24 hrs in presence of CuSO4 by TBARS assay", "format": "functional, cell-based", "conditions": "THP-1, 24 h"}, "[19]": {"experiment": "Antioxidant activity assessed as DPPH radical scavenging activity at 10 ug/ml after 20 mins by UV absorbance method relative to control", "format": "functional"}}, "data": [{"compound": "CCOC(=O)C1=C(N)Oc2c(c(C)nn2C(=O)c2ccncc2)C1c1c(-c2ccc(C)cc2)[nH]c2ccccc12", "note": "(stereo unspecified)", "values": [{"measurement": "Activity", "setting": "[1]", "result": 76.1, "unit": "%"}, {"measurement": "Activity", "setting": "[2]", "result": 76.1, "unit": "%"}, {"measurement": "Activity", "setting": "[3]", "result": 80.1, "unit": "%"}, {"measurement": "Activity", "setting": "[4]", "result": 79.6, "unit": "%"}]}, {"compound": "Clc1ncnc2c1ncn2CC1CC(C2=NNC(Cn3cnc4c(Cl)ncnc43)C2)=NN1", "note": "(stereo unspecified)", "values": [{"measurement": "Activity", "setting": "[5]", "result": "62 to 79", "unit": "%"}]}, {"compound": "CCOC(=O)C1=C(N)Oc2c(c(C)nn2C(=O)c2ccncc2)C1c1c(-c2ccccc2)[nH]c2ccccc12", "note": "(stereo unspecified)", "values": [{"measurement": "Activity", "setting": "[1]", "result": 70.2, "unit": "%"}, {"measurement": "Activity", "setting": "[2]", "result": 74.5, "unit": "%"}, {"measurement": "Activity", "setting": "[4]", "result": "66.6 to 76.1", "unit": "%"}]}, {"compound": "Oc1cc(O)c2c(c1)O[C@H](c1ccc(O)c(O)c1)[C@@H](O)C2", "note": "[CIANIDANOL]", "values": [{"measurement": "IC50", "setting": "[6]", "result": 1440, "unit": "µM"}, {"measurement": "IC50", "setting": "[7]", "result": 2930, "unit": "µM"}]}, {"compound": "CCOC(=O)c1c(C)nn(-c2cccc(Cl)c2)c1-c1ccc([N+](=O)[O-])cc1", "values": [{"measurement": "inhibition", "setting": "[8]", "result": "22.2 to 49.9", "unit": "%"}]}, {"compound": "O=C1[C@H]2C(c3ccc(Cl)cc3)=NN(c3ccccc3)[C@H]2C(=O)N1c1ccccc1", "values": [{"measurement": "Activity", "setting": "[9]", "result": "< 40", "unit": "%"}]}, {"compound": "Cc1ccc(-n2nc(-c3ccccc3)cc2Cn2cnc3c(Cl)ncnc32)cc1", "values": [{"measurement": "Activity", "setting": "[5]", "result": 60, "unit": "%"}]}, {"compound": "CCOC(=O)c1c(C)nn(-c2ccccc2)c1-c1ccc(N(C)C)cc1", "values": [{"measurement": "inhibition", "setting": "[8]", "result": "22.2 to 49.9", "unit": "%"}]}, {"compound": "O=[N+]([O-])c1cccc(C2Nc3ccccc3-c3cc(-c4ccccc4)nn32)c1", "note": "(stereo unspecified)", "values": [{"measurement": "Activity", "setting": "[10]", "result": 96, "unit": "%"}]}, {"compound": "c1ccc(C2=NN(c3ccccc3)C(Cn3cnc4c(N5CCOCC5)ncnc43)C2)cc1", "note": "(stereo unspecified)", "values": [{"measurement": "inhibition", "setting": "[11]", "result": 100, "unit": "%"}, {"measurement": "Activity", "setting": "[5]", "result": "13 to 24", "unit": "%"}]}, {"compound": "CCOC(=O)C1=C(N)Oc2c(c(C)nn2C(=O)c2ccncc2)C1c1c(-c2ccc(C)cc2)[nH]c2ccc(Cl)cc12", "note": "(stereo unspecified)", "values": [{"measurement": "Activity", "setting": "[3]", "result": "66.6 to 76.1", "unit": "%"}]}, {"compound": "COc1cc(C2=NN(c3ccccc3)[C@H]3C(=O)N(c4ccccc4)C(=O)[C@@H]23)cc(OC)c1OC", "values": [{"measurement": "Activity", "setting": "[9]", "result": "< 55", "unit": "%"}]}, {"compound": "CCOC(=O)c1c(C)nn(-c2cccc(Cl)c2)c1-c1ccc(N(C)C)cc1", "values": [{"measurement": "inhibition", "setting": "[8]", "result": "22.2 to 49.9", "unit": "%"}]}, {"compound": "O=C1[C@H]2C(c3ccccc3)=NN(c3ccccc3)[C@H]2C(=O)N1c1ccccc1", "values": [{"measurement": "Activity", "setting": "[9]", "result": "< 55", "unit": "%"}]}, {"compound": "CCOC(=O)c1c(C)nn(-c2ccc(C)cc2C)c1-c1ccc([N+](=O)[O-])cc1", "values": [{"measurement": "inhibition", "setting": "[8]", "result": "22.2 to 49.9", "unit": "%"}]}, {"compound": "CCOC(=O)c1c(C)nn(-c2cccc(Cl)c2)c1-c1ccc(Cl)cc1", "values": [{"measurement": "inhibition", "setting": "[8]", "result": "22.2 to 49.9", "unit": "%"}]}, {"compound": "O=C(/C=C/c1cn(-c2ccccc2)nc1-c1ccc(Cl)cc1)c1cccc(NC(=O)c2ccc(F)cc2)c1", "values": [{"measurement": "Activity", "setting": "[12]", "result": "32.4 to 77.9", "unit": "%"}, {"measurement": "Activity", "setting": "[13]", "result": "44.4 to 55.5", "unit": "%"}]}, {"compound": "Nc1[nH]nc(NCc2ccccc2)c1-c1ccc([N+](=O)[O-])cc1", "values": [{"measurement": "IC50", "setting": "[14]", "result": 800, "unit": "µg/mL"}]}, {"compound": "c1ccc(C2=NN(c3ccccc3)C(Cn3cnc4c(N5CCCC5)ncnc43)C2)cc1", "note": "(stereo unspecified)", "values": [{"measurement": "inhibition", "setting": "[11]", "result": 73, "unit": "%"}, {"measurement": "Activity", "setting": "[5]", "result": "13 to 24", "unit": "%"}]}, {"compound": "CC1=NN(C(=O)c2ccccc2O)C(O)(C(F)(F)F)C1", "note": "(stereo unspecified)", "values": [{"measurement": "IC50", "setting": "[15]", "result": "< 15", "unit": "µM"}]}, {"compound": "COc1ccc(C2C(c3ccc(Cl)cc3)=NN(c3ccccc3)C2C#N)cc1", "note": "(stereo unspecified)", "values": [{"measurement": "Activity", "setting": "[16]", "result": "< 60", "unit": "%"}]}, {"compound": "O=C(/C=C/c1cn(-c2ccccc2)nc1-c1cccc([N+](=O)[O-])c1)c1cccc(NC(=O)c2ccc(F)cc2)c1", "values": [{"measurement": "Activity", "setting": "[12]", "result": "32.4 to 77.9", "unit": "%"}, {"measurement": "Activity", "setting": "[17]", "result": 33.3, "unit": "%"}]}, {"compound": "Cc1ccc(N2N=C(c3ccccc3)CC2Cn2cnc3c(Cl)ncnc32)cc1", "note": "(stereo unspecified)", "values": [{"measurement": "inhibition", "setting": "[11]", "result": 58, "unit": "%"}, {"measurement": "Activity", "setting": "[5]", "result": 20, "unit": "%"}]}, {"compound": "CC(C)(C)OC(=O)N1CCN(c2ncnc3c2ncn3CC2CC(c3ccccc3)=NN2c2ccccc2)CC1", "note": "(stereo unspecified)", "values": [{"measurement": "inhibition", "setting": "[11]", "result": 54, "unit": "%"}, {"measurement": "Activity", "setting": "[5]", "result": "13 to 24", "unit": "%"}]}, {"compound": "COc1ccc(C2C(c3ccco3)=NN(c3ccccc3)C2C#N)cc1", "note": "(stereo unspecified)", "values": [{"measurement": "Activity", "setting": "[16]", "result": "< 45", "unit": "%"}]}, {"compound": "Cc1ccc(-c2nn(-c3ccccc3)cc2/C=C/C(=O)c2cccc(NC(=O)c3ccc(F)cc3)c2)cc1", "values": [{"measurement": "Activity", "setting": "[12]", "result": "32.4 to 77.9", "unit": "%"}, {"measurement": "Activity", "setting": "[13]", "result": "44.4 to 55.5", "unit": "%"}, {"measurement": "Activity", "setting": "[17]", "result": "36.8 to 42.3", "unit": "%"}]}, {"compound": "COc1ccc(C2C(c3ccc(C#N)cc3)=NN(c3ccccc3)C2C#N)cc1", "note": "(stereo unspecified)", "values": [{"measurement": "Activity", "setting": "[16]", "result": "< 60", "unit": "%"}]}, {"compound": "Clc1ncnc2c1ncn2CC1CC(c2ccccc2)=NN1c1ccccc1", "note": "(stereo unspecified)", "values": [{"measurement": "inhibition", "setting": "[11]", "result": 94, "unit": "%"}, {"measurement": "Activity", "setting": "[5]", "result": "13 to 24", "unit": "%"}]}, {"compound": "COc1ccc(C2=NN(c3ccccc3)C(C#N)C2c2ccc(OC)cc2)cc1", "note": "(stereo unspecified)", "values": [{"measurement": "Activity", "setting": "[16]", "result": "< 45", "unit": "%"}]}, {"compound": "O=C(/C=C/c1cn(-c2ccccc2)nc1-c1ccc(F)cc1)c1cccc(NC(=O)c2ccc(F)cc2)c1", "values": [{"measurement": "Activity", "setting": "[12]", "result": "32.4 to 77.9", "unit": "%"}, {"measurement": "Activity", "setting": "[17]", "result": 33.3, "unit": "%"}]}, {"compound": "CC(C)(Sc1cc(C(C)(C)C)c(O)c(C(C)(C)C)c1)Sc1cc(C(C)(C)C)c(O)c(C(C)(C)C)c1", "note": "[PROBUCOL]", "values": [{"measurement": "IC50", "setting": "[18]", "result": 0.6, "unit": "µM"}]}, {"compound": "COc1ccc(C2=NN(c3ccccc3)[C@H]3C(=O)N(c4ccccc4)C(=O)[C@@H]23)cc1", "values": [{"measurement": "Activity", "setting": "[9]", "result": "< 55", "unit": "%"}]}, {"compound": "COc1ccc(C2C(c3ccc(Br)cc3)=NN(c3ccccc3)C2C#N)cc1", "note": "(stereo unspecified)", "values": [{"measurement": "Activity", "setting": "[16]", "result": "< 60", "unit": "%"}]}, {"compound": "O=C(c1ccc(Cl)cc1)N1N=C(Cn2c3ccccc3c3nc4cc(Cc5ccc6nc(-c7ccccc7)c(-c7ccccc7)nc6c5)ccc4nc32)CC1c1ccc(F)cc1", "note": "(stereo unspecified)", "values": [{"measurement": "Activity", "setting": "[19]", "result": 40.6, "unit": "%"}]}, {"compound": "CCOC(=O)c1c(C)nn(-c2ccc(C)cc2C)c1-c1ccc(N(C)C)cc1", "values": [{"measurement": "inhibition", "setting": "[8]", "result": "22.2 to 49.9", "unit": "%"}]}]}
